Results: ChEMBL document CHEMBL1201862, “PubChem BioAssay data set” (2004)
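Dose response: 5 concentrations. Exposure: 48 h. Format: 96-well plates. Endpoint: linear interpolation; highest concentration if not reached. GI50 is the concentration that inhibits growth by half.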 Calls of active or inactive are those of the source. Cut-off read from the data, not from the text of the source: active = GI50 up to about 1.1 µM and inactive = higher.

How the values were obtained:
Experiment in all cases: growth of human tumour cells (NCI), 48 h
[1] = test system: SK-MEL-28
[2] = test system: COLO 205
[3] = test system: Hs-578T
[4] = test system: LOX IMVI
[5] = test system: OVCAR-5
[6] = test system: SK-OV-3
[7] = test system: NCI-H23
[8] = test system: HL-60
[9] = test system: UACC-257
[10] = test system: NCI/ADR-RES
[11] = test system: K562
[12] = test system: M14
[13] = test system: IGROV-1
[14] = test system: SF-268
[15] = test system: HT-29
[16] = test system: OVCAR-3
[17] = test system: PC-3
[18] = test system: HOP-92
[19] = test system: SK-MEL-5
[20] = test system: DU-145

Structure (SMILES) | GI50 [1] | GI50 [2] | GI50 [3] | GI50 [4] | GI50 [5] | GI50 [6] | GI50 [7] | GI50 [8] | GI50 [9] | GI50 [10] | GI50 [11] | GI50 [12] | GI50 [13] | GI50 [14] | GI50 [15] | GI50 [16] | GI50 [17] | GI50 [18] | GI50 [19] | GI50 [20]
CC1(C)CC2(C)ON=C(c3ccccc3)N2c2ccccc2N1 (configuration not stated) | 23 µM (inactive) | 19.5 µM (inactive) | 18.8 µM (inactive) | 17.3 µM (inactive) | 46.9 µM (inactive) | 21.7 µM (inactive) | 25 µM (inactive) | 19.7 µM (inactive) | 24.4 µM (inactive) | 23.4 µM (inactive) | 19.8 µM (inactive) | 19.6 µM (inactive) | 32.1 µM (inactive) | 22.1 µM (inactive) | 16.4 µM (inactive) | 16.5 µM (inactive) | 14.8 µM (inactive) | 21.6 µM (inactive) | 16.7 µM (inactive) | 33.1 µM (inactive)
O=C1c2cc([N+](=O)[O-])cnc2S(=O)(=O)N1c1ccc(Br)cc1 | > 100 µM (inactive) | > 100 µM (inactive) | > 100 µM (inactive) | > 100 µM (inactive) | > 100 µM (inactive) | > 100 µM (inactive) | > 100 µM (inactive) | > 100 µM (inactive) | > 100 µM (inactive) | > 100 µM (inactive) |  | > 100 µM (inactive) | > 100 µM (inactive) | > 100 µM (inactive) | > 100 µM (inactive) | > 100 µM (inactive) | > 100 µM (inactive) | > 100 µM (inactive) | > 100 µM (inactive) | > 100 µM (inactive)
COc1cc(NCc2ccc3nc(N)nc(N)c3c2C)cc(OC)c1OC | 0.313 µM (active) | 1.07 µM (active) | 0.0993 µM (active) | 0.025 µM (active) | 1.85 µM (inactive) | 2.84 µM (inactive) | 0.0453 µM (active) | 0.043 µM (active) | 0.14 µM (active) | 2.74 µM (inactive) | 0.038 µM (active) | 0.00024 µM (active) | 0.0316 µM (active) | 0.0258 µM (active) | 0.0267 µM (active) | 0.288 µM (active) | 0.000383 µM (active) | 0.75 µM (active) | 0.0289 µM (active) | 0.00102 µM (active)
c1ccc2[nH]c(C3CCCCO3)nc2c1 (configuration not stated) | > 100 µM (inactive) | > 100 µM (inactive) | > 100 µM (inactive) | > 100 µM (inactive) | > 100 µM (inactive) | > 100 µM (inactive) | > 100 µM (inactive) | > 100 µM (inactive) | > 100 µM (inactive) | > 100 µM (inactive) | > 100 µM (inactive) | > 100 µM (inactive) | > 100 µM (inactive) | > 100 µM (inactive) | > 100 µM (inactive) | > 100 µM (inactive) | > 100 µM (inactive) | > 100 µM (inactive) | > 100 µM (inactive) | > 100 µM (inactive)
N#Cc1c(NC(=S)NCc2ccccc2)sc2c1CCN(N1CCc3c(sc(NC(=S)NCc4ccccc4)c3C#N)C1)C2 | > 100 µM (inactive) | > 100 µM (inactive) | > 100 µM (inactive) | > 100 µM (inactive) | > 100 µM (inactive) | > 100 µM (inactive) | > 100 µM (inactive) | > 100 µM (inactive) | > 100 µM (inactive) | > 100 µM (inactive) | > 100 µM (inactive) | > 100 µM (inactive) | > 100 µM (inactive) | > 100 µM (inactive) | > 100 µM (inactive) | > 100 µM (inactive) | > 100 µM (inactive) | > 100 µM (inactive) | > 100 µM (inactive) | > 100 µM (inactive)
Cc1cn(C2CC(O)C(CO)O2)c(=O)[nH]c1=O (configuration not stated) | 1360 µM (inactive) | 3090 µM (inactive) | 3900 µM (inactive) | 1310 µM (inactive) | 4060 µM (inactive) | 2480 µM (inactive) | 1020 µM (inactive) | > 4760 µM (inactive) | 3760 µM (inactive) | 2260 µM (inactive) | 1540 µM (inactive) | 1850 µM (inactive) | > 4900 µM (inactive) | 2280 µM (inactive) | 4430 µM (inactive) | 1490 µM (inactive) | > 5000 µM (inactive) | 3020 µM (inactive) | 4450 µM (inactive) | > 4450 µM (inactive)
COc1cc2c(c(OC)c1OC)C(=O)[C@H](Br)[C@H]2NC(=O)NCCCl | > 100 µM (inactive) | 50.8 µM (inactive) | > 100 µM (inactive) | 47.1 µM (inactive) | > 100 µM (inactive) | 59 µM (inactive) | > 100 µM (inactive) | 75.5 µM (inactive) | > 100 µM (inactive) | > 100 µM (inactive) | 58.2 µM (inactive) | 86.1 µM (inactive) | 68.1 µM (inactive) | 49.9 µM (inactive) | > 100 µM (inactive) | 68.2 µM (inactive) | > 100 µM (inactive) | > 100 µM (inactive) | 37.2 µM (inactive) | > 100 µM (inactive)
O=C1[C@@H](O)[C@@H]2CCCC[C@@]23CCCN13 | > 100 µM (inactive) | > 100 µM (inactive) | > 100 µM (inactive) | > 100 µM (inactive) | > 100 µM (inactive) | > 100 µM (inactive) | > 100 µM (inactive) | > 100 µM (inactive) | > 100 µM (inactive) | > 100 µM (inactive) | > 100 µM (inactive) | > 100 µM (inactive) | > 100 µM (inactive) | > 100 µM (inactive) | > 100 µM (inactive) |  | > 100 µM (inactive) | 36.6 µM (inactive) | > 100 µM (inactive) | > 100 µM (inactive)
Cc1ccc(C(=O)/C=C2\Nc3cccnc3NC2=O)cc1 | > 100 µM (inactive) | > 100 µM (inactive) | 37.8 µM (inactive) | > 100 µM (inactive) | > 100 µM (inactive) | > 100 µM (inactive) | > 100 µM (inactive) | > 100 µM (inactive) | > 100 µM (inactive) | > 100 µM (inactive) | > 100 µM (inactive) | > 100 µM (inactive) | > 100 µM (inactive) | 55.8 µM (inactive) | > 100 µM (inactive) | > 100 µM (inactive) | > 100 µM (inactive) | > 100 µM (inactive) | > 100 µM (inactive) | > 100 µM (inactive)
NC(=O)N/N=C1\C[C@H]2CCCC[C@H]2C1 | > 100 µM (inactive) | > 100 µM (inactive) | > 100 µM (inactive) | > 100 µM (inactive) | > 100 µM (inactive) | > 100 µM (inactive) |  | > 100 µM (inactive) | > 100 µM (inactive) | > 100 µM (inactive) | > 100 µM (inactive) | > 100 µM (inactive) | > 100 µM (inactive) | > 100 µM (inactive) | > 100 µM (inactive) | > 100 µM (inactive) | > 100 µM (inactive) | > 100 µM (inactive) | > 100 µM (inactive) | > 100 µM (inactive)
